Measurements from paper PMC8895377, “In Vivo Targeting Replication Protein A for Cancer Therapy” (Frontiers in Oncology, 2022).
Read-outs that look alike come from different tables or passages of the source.

Tests used:
[1] = Pharmacokinetics in mice (plasma, HPLC-MS/MS); type: in vivo; conditions: for AUC(0-inf): read-out: AUC 0-inf_obs; for k el: read-out: Lambda_z (converted); for MRT inf: read-out: MRT 0-inf_obs
Method: A method to quantify 329 from plasma has been developed using an internal standard, liquid–liquid extraction, and HPLC-MS/MS. Mouse plasma samples were prepared from treated mice at the indicated times frozen at -80°C until analysis. Plasma samples were thawed (20 µl) and transferred to polypropylene tubes, and the internal standard is added (20 µl of 0.1 ng/µl). Samples were diluted in 0.1 M phosphate buffer (pH = 7.4) and equal volume of methyl tertiary butyl ether. The samples were mixed and centrifuged at 12,000×g for 5 min, and the supernatant was transferred to a clean polypropylene tube. The solvent was evaporated to dryness, brought up in mobile phase analyzed by HPLC-MS/MS (ABSciex 4000). The mobile phase is delivered via gradient using acetonitrile and 0.1% formic acid on an Agilent Zorbax 300SB-C8 150 × 4.6 mm, 5-µm column. The mass spectrometer utilized an electrospray ionization probe run in positive mode. Multiple reaction monitoring was employed with Q1/Q3 (m/z) transitions for 329 at 718.2/128.1 and 687.3/128.1 for the internal standard. The lower limit of quantification is 0.1 ng/ml using 20 µl of plasma.
PK parameters were assessed in a series of studies in immunocompetent mice both IV and IP ( Figure 7B and Table 4 ). […] The half-life was also well within acceptable range (9 h).

H460 NSCLC cells = assay: CCK-8 viability assay; type: cell-based, human; conditions: H460, 48 h, compared to 551 predecessor
Method: Cell lines were obtained from ATCC and maintained as monolayer cultures in RPMI 1640 medium (H460) or Dulbecco’s Modified Eagle's Medium (DMEM) (A549) supplemented with 10% fetal bovine serum. H460 and A549 cells were plated at 2.5 × 10^3 cells/well and A2780 and GCT27 cells plated at 5 × 10^3 cells/well in a 96-well plate and incubated for 18–24 h prior to treatments. Cells were treated with the indicated concentration of RPAi for 48 h. The vehicle (DMSO) concentration was held constant at 1%. Cell metabolism/viability was assessed by a mitochondrial metabolism assay (CCK-8) as we have described previously ([10]). The generation of the water-soluble formazan product by cellular dehydrogenases is proportional to the number of living cells. Following incubation with CCK-8 reagent, absorbance was measured at 450 nm with a BioTek Synergy H1 plate reader. Values were compared to those of vehicle-treated controls to determine percent viability, and the results represent the average and SEM of triplicate determinations.

[2] = system: A549 adenocarcinoma xenografts; assay: A549 xenograft efficacy; type: in vivo, mice
Description: To assess anticancer efficacy, the hind flanks of 60 8–10-week-old Nod SCID gamma (NSG) mice were implanted with the indicated cells (~2 × 10^6) in Matrigel. Tumor volumes were monitored by electronic caliper measurement [tumor volumes = length × (perpendicular width)^2 × 0.5]. NSG studies were approved by the Institutional Animal Care and Use Committee at Indiana University School of Medicine. Male NSG (NOD‐scid/IL2Rg^null) mice (In Vivo Therapeutics Core Facility, IU Simon Comprehensive Cancer Center, Indianapolis, IN, USA) were used and housed in a pathogen‐free facility at IUSM LARC. Mice with tumors of approximately 100 mm^3 were randomized into individual treatment arms. The indicated RPAi was formulated and administered via intraperitoneal injection (IP) at the indicated times. Tumor volumes were monitored biweekly as indicated, and the results are presented as the average tumor volume ± standard error of the mean for each group. […]
Figure 8 In vivo analysis of anticancer activity of 329. (A) Anticancer activity was assessed in human H460 NCSLC tumor xenografts in NOD/SCID mice. Mice were implanted subcutaneously on day 1 with H460 NSCLC cells, tumors were measured by calipers, and mice assigned randomly to treatment arms. […] (C) Tumor weight from A549 cells was determined on day 32. […]

[3] = In vivo toxicity analysis
[4] = DMSO/Tween formulation, data not shown
[5] = IP, DMSO vehicle, 200 mg/kg, mice
[6] = IP, NMP vehicle, 20 mg/kg, mice
[7] = IP, NMP vehicle, 200 mg/kg, mice
[8] = mouse, plasma, ip, 20 mg/kg, IP, NMP vehicle, 20 mg/kg, mice
[9] = mouse, plasma, ip, 20 mg/kg, NMP vehicle, mice
[10] = mouse, plasma, ip, 200 mg/kg, DMSO vehicle, mice
[11] = mouse, plasma, ip, 200 mg/kg, IP, DMSO vehicle, 200 mg/kg, mice
[12] = mouse, plasma, ip, 200 mg/kg, IP, NMP vehicle, 200 mg/kg, mice
[13] = mouse, plasma, ip, 200 mg/kg, NMP vehicle, mice
[14] = mouse, plasma, iv, 2 mg/kg, IV, NMP vehicle, 2 mg/kg, mice
[15] = mouse, plasma, iv, 2 mg/kg, NMP vehicle, mice

CCOc1ccc2cc(C3CC(c4ccc(I)cc4)=NN3C(=O)CCCC(=O)NCCCN3CCOCC3)c(Cl)nc2c1 (stereo not shown) [compound 329]
AUC and Cmax compared to 551 [1, 4]: significant reduction in AUC and Cmax
AUMC 0-inf_obs [1, 5]: 95023.52 ng/ml*h^2
CI/F_obs [1, 5]: 0.0902 (mg/kg)/(ng/ml)/h
Vz/F_obs [1, 5]: 4.015 (mg/kg)/(ng/ml)
AUMC 0-inf_obs [1, 6]: 98489.24 ng/ml*h^2
CI/F_obs [1, 6]: 0.0012 (mg/kg)/(ng/ml)/h
Vz/F_obs [1, 6]: 0.011 (mg/kg)/(ng/ml)
AUMC 0-inf_obs [1, 7]: 947545.56 ng/ml*h^2
Vz/F_obs [1, 7]: 0.172 (mg/kg)/(ng/ml)
AUMC 0-inf_obs ([1]; IV, NMP vehicle, 2 mg/kg, mice): 1897.83 ng/ml*h^2
CI/F_obs ([1]; IV, NMP vehicle, 2 mg/kg, mice): 0.0014 (mg/kg)/(ng/ml)/h
Vz/F_obs ([1]; IV, NMP vehicle, 2 mg/kg, mice): 0.007 (mg/kg)/(ng/ml)
bioavailability ([1]; mouse, plasma, intraperitoneal, IP at 20 mg/kg versus IV dosing, read-out: absolute bioavailability): 84%
AUC(0-inf) [1, 8]: 16500 ng·h/mL
k el [1, 8]: 3.06e-05 s⁻¹
MRT inf [1, 8]: 5.98 h
half-life ([1]; mouse, plasma, ip, 20 mg/kg, IP, NMP vehicle, 20 mg/kg, mice, read-out: t1/2 (converted)): 378 min
AUC(0-t) [1, 9]: 16400 ng·h/mL
Cmax [1, 9]: 2510 ng/mL
Tmax [1, 9]: 2 h
AUC(0-t) [1, 10]: 968 ng·h/mL
Cmax [1, 10]: 92.1 ng/mL
Tmax [1, 10]: 0.25 h
AUC(0-inf) [1, 11]: 2220 ng·h/mL
k el [1, 11]: 5.56e-06 s⁻¹
MRT inf [1, 11]: 42.8 h
half-life ([1]; mouse, plasma, ip, 200 mg/kg, IP, DMSO vehicle, 200 mg/kg, mice, read-out: t1/2 (converted)): 1850 min
AUC(0-inf) [1, 12]: 64300 ng·h/mL
k el [1, 12]: 1.94e-05 s⁻¹
MRT inf [1, 12]: 14.7 h
half-life ([1]; mouse, plasma, ip, 200 mg/kg, IP, NMP vehicle, 200 mg/kg, mice, read-out: t1/2 (converted)): 559 min
half-life ([1]; mouse, plasma, ip, 200 mg/kg, IP, new formulation, 200 mg/kg, read-out: half-life (converted)): 540 min
AUC(0-t) [1, 13]: 52000 ng·h/mL
Cmax [1, 13]: 2910 ng/mL
Tmax [1, 13]: 8 h
AUC(0-inf) [1, 14]: 1410 ng·h/mL
k el [1, 14]: 5.83e-05 s⁻¹
MRT inf [1, 14]: 1.35 h
half-life ([1]; mouse, plasma, iv, 2 mg/kg, IV, NMP vehicle, 2 mg/kg, mice, read-out: t1/2 (converted)): 197 min
AUC(0-t) [1, 15]: 1400 ng·h/mL
Cmax [1, 15]: 841 ng/mL
Tmax [1, 15]: 0.5 h
single-agent cellular anticancer activity (CCK-8) (H460 NSCLC cells): potent single-agent activity
tumor growth ([2]; 40 mg/kg IP once daily from day 11, optimized formulation): significant reduction in tumor growth
terminal tumor weight ([2]; 40 mg/kg IP, day 32): significant smaller tumors
toxicity ([3]; 200 mg/kg in the new formulation): increased toxicity
kidney function [3, 4]: no differences from vehicle controls
toxicity ([3]; dosing up to 200 mg/kg, suspension in DMSO/Tween): no overt toxicity
body weight ([3]; up to 200 mg/kg, suspension in DMSO/Tween): no significant loss in body weight
